Reference: patent publication US20130225583A1, “SUBSTITUTED AMINO-TRIAZOLYL PDE10 INHIBITORS” (priority 2010, published 2013)

biological target: T1, human PDE10A2 (Homo sapiens, UniProt Q9Y233); experiment: PDE10 fluorescence polarization (IMAP FP) inhibition assay; assay type: biochemical; details: apparent inhibition constant; FAM-labeled cAMP 50 nM; lysate of AD293 cells transfected with human PDE10A2; room temperature; read-out: PDE10a Ki
T1 construct: made in house; host or cells: AD293 cells, transiently transfected; The cytosolic supernatant of the lysate served as the enzyme
T1 sequence (Q9Y233 267-1055): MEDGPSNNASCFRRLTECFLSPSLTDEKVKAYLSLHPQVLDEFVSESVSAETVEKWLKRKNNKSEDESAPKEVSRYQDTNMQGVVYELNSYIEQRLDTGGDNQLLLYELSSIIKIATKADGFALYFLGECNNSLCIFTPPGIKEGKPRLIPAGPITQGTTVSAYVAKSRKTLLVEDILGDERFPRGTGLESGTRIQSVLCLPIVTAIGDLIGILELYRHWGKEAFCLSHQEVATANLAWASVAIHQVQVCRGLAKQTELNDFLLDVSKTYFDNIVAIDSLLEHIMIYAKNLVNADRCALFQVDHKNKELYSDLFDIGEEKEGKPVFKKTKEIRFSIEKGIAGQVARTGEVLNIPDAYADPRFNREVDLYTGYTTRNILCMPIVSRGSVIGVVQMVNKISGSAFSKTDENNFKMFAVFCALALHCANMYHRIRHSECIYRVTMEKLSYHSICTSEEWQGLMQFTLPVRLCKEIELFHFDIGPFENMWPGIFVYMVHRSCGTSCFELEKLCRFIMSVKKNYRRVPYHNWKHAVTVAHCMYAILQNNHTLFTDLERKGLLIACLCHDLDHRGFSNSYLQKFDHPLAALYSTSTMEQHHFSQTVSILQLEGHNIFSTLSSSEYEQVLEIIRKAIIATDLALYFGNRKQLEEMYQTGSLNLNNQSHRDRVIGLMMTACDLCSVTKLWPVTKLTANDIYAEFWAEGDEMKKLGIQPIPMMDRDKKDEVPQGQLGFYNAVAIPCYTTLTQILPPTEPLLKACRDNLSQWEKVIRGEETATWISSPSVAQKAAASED
Method: The activity of the compounds in accordance with the present invention as PDE10 inhibitors may be readily determined without undue experimentation using a fluorescence polarization (FP) methodology that is well known in the art (Huang, W., et al., J. Biomol Screen, 2002, 7: 215).
In a typical experiment the PDE 10 inhibitory activity of the compounds of the present invention was determined in accordance with the following experimental method. PDE 10A2 was amplified from human fetal brain cDNA (Clontech, Mountain View, Calif.) using a forward primer corresponding to nucleotides 56-77 of human PDE10A2 (Accession No. AF127480, Genbank Identifier 4894716), containing a Kozak consensus sequence, and a reverse primer corresponding to nucleotides 2406-2413 of human PDE10A2 (Accession No. AF127480, Genbank Identifier 4894716). Amplification with Easy-A polymerase (Stratagene, La Jolla, Calif.) was 95° C. for 2 minutes followed by thirty three cycles of 95° C. for 40 seconds, 55° C. for 30 seconds, and 72° C. for 2 minutes 48 seconds. Final extension was 72° C. for 7 minutes. The PCR product was TA cloned into pcDNA3.2-TOPO (Invitrogen, Carlsbad, Calif.) according to standard protocol. AD293 cells with 70-80% confluency were transiently transfected with human PDE10A2/pcDNA3.2-TOPO using Lipofectamine 2000 according to manufacturer specifications (Invitrogen, Carlsbad, Calif.). Cells were harvested 48 hours post-transfection and lysed by sonication (setting 3, 10×5 sec pulses) in a buffer containing 20 mM HEPES, 1 mM EDTA and protease inhibitor cocktail (Roche). Lysate was collected by centrifugation at 75,000×g for 20 minutes. Supernatant containing the cytoplasmic fraction was used for evaluation of PDE10A2 activity. The fluorescence polarization assay for cyclic nucleotide phosphodiesterases was performed using an IMAP® FP kit supplied by Molecular Devices, Sunnyvale, Calif. (product # R8139). IMAP® technology has been applied previously to phosphodiesterase assays (Huang, W., et al., J. Biomol Screen, 2002, 7: 215). Assays were performed at room temperature in 384-well microtiter plates with an incubation volume of 20.2 μL. Solutions of test compounds were prepared in DMSO and serially diluted with DMSO to yield 8 μL of each of 10 solutions differing by 3-fold in concentration, at 32 serial dilutions per plate. 100% inhibition is determined using a known PDE 10 inhibitor, which can be any compound that is present at 5,000 times its Ki value in the assay described as follows, such as papaverine (see Siuciak, et al. Neuropharmacology (2006) 51:386-396; Becker, et al. Behav Brain Res (2008) 186(2):155-60; Threlfell, et al., J Pharmacol Exp Ther (2009) 328(3):785-795), 2-{4-[pyridin-4-yl-1-(2,2,2-trifluoroethyl)-1H-pyrazol-3-yl]phenoxymethyl}quinoline succinic acid or 2-[4-(1-methyl-4-pyridin-4-yl-1H-pyrazol-3-yl)-phenoxymethyl]quinoline succinic acid (see Schmidt, et al. J Pharmacol Exp Ther (2008) 325:681-690; Threlfell, et al., J Pharmacol Exp Ther (2009) 328(3): 785-795). 0% of inhibition is determined by using DMSO (1% final concentrations). A Labcyte Echo 555 (Labcyte, Sunnyvale, Calif.) is used to dispense 200 nL from each well of the titration plate to the 384 well assay plate. A solution of enzyme ( 1/7000 dilution from aliquots; sufficient to produce 20% substrate conversion) and a separate solution of FAM-labeled cAMP PDE from Molecular Devices (product # R7506), at a final concentration of 50 nM are made in the assay buffer (10 mM Tris HCl, pH 7.2, 10 mM MgCl2, 0.05% NaN3 0.01% Tween-20, and 1 mM DTT). The enzyme is added to the assay plates by the addition of 10 μL of enzyme solution to each well, shaken to mix and incubated at room temperature for 60 minutes. The substrate is then added to the assay plates by the addition of 10 μL of substrate solution to each well, shaken to mix, and incubated at room temperature for 60 minutes. […]

SMILES | Ki
COc1ccc(CNc2nc(Cc3ccc(OC)c(OC)c3)n(-c3ccccc3)n2)cc1 [1-10, 5-(3,4-dimethoxybenzyl)-N-(4-methoxybenzyl)-1-phenyl-1H-1,2,4-triazol-3-amine] | 146 nM
COc1ccc(CNc2nc(Cc3ccc(OC)c(OC)c3)n(C)n2)cc1 [1-11, 5-(3,4-dimethoxybenzyl)-N-(4-methoxybenzyl)-1-methyl-1H-1,2,4-triazol-3-amine] | 24.8 nM
COc1ccc(CNc2nc(Cc3ccc(OC)c(OC)c3)n(-c3ccccn3)n2)cc1 [1-13, 5-(3,4-dimethoxybenzyl)-N-(4-methoxybenzyl)-1-(pyridin-2-yl)-1H-1,2,4-triazol-3-amine] | 780 nM
COc1ccc(Cc2nc(N)nn2-c2ccccn2)cc1OC [1-14, 5-(3,4-dimethoxybenzyl)-1-(pyridin-2-yl)-1H-1,2,4-triazol-3-amine] | 250 nM
COc1ccc(Cc2nc(N)nn2-c2ccc(Cl)c(Cl)c2)cc1OC [1-16, 1-(3,4-dichlorophenyl)-5-(3,4-dimethoxybenzyl)-1H-1,2,4-triazol-3-amine] | 153 nM
COc1ccc(Cc2nc(N)nn2-c2cc(C)cc(C)c2)cc1OC [1-17, 5-(3,4-dimethoxybenzyl)-1-(3,5-dimethylphenyl)-1H-1,2,4-triazol-3-amine] | 101 nM
COc1ccccc1COc1cc(-n2nc(N)nc2Cc2ccc(OC)c(OC)c2)ncn1 [1-35, 5-(3,4-dimethoxybenzyl)-1-(6-(2-methoxybenzyloxy)pyrimidin-4-yl)-1H-1,2,4-triazol-3-amine] | 880 nM
COc1ccc(COc2cc(-n3nc(N)nc3Cc3ccc(OC)c(OC)c3)ncn2)cc1 [1-36, 5-(3,4-dimethoxybenzyl)-1-(6-(4-methoxybenzyloxy)pyrimidin-4-yl)-1H-1,2,4-triazol-3-amine] | 550 nM
COc1ccc(Cc2nc(N)nn2-c2cc(OCc3ccc4ccccc4c3)ncn2)cc1OC [1-38, 5-(3,4-dimethoxybenzyl)-1-(6-(naphthalen-2-ylmethoxy)pyrimidin-4-yl)-1H-1,2,4-triazol-3-amine] | 54 nM
COc1ccc(Cc2nc(N)nn2-c2cc(OC3Cc4ccccc4C3)ncn2)cc1OC [1-39, 1-(6-(2,3-dihydro-1H-inden-2-yloxy)pyrimidin-4-yl)-5-(3,4-dimethoxybenzyl)-1H-1,2,4-triazol-3-amine] | 970 nM
COc1ccc(Cc2nc(N)nn2-c2cc(OCc3nc4ccccc4[nH]3)ncn2)cc1OC [1-40, 1-(6-((1H-benzo[d]imidazol-2-yl)methoxy)pyrimidin-4-yl)-5-(3,4-dimethoxybenzyl)-1H-1,2,4-triazol-3-amine] | 19 nM
COc1ccc(Cc2nc(N)nn2-c2cc(OCc3cn4ccccc4n3)ncn2)cc1OC [1-41, 5-(3,4-dimethoxybenzyl)-1-(6-(imidazo[1,2-a]pyridin-2-ylmethoxy)pyrimidin-4-yl)-1H-1,2,4-triazol-3-amine] | 180 nM
COc1ccc(Cc2nc(N)nn2-c2cc(OCc3ccc(-c4ccncc4)cc3)ncn2)cc1OC [1-42, 5-(3,4-dimethoxybenzyl)-1-(6-(4-(pyridin-4-yl)benzyloxy)pyrimidin-4-yl)-1H-1,2,4-triazol-3-amine] | 270 nM
COc1ccc(Cc2nc(N)nn2-c2cc(OCc3ccccc3-c3cccs3)ncn2)cc1OC [1-43, 5-(3,4-dimethoxybenzyl)-1-(6-(2-(thiophen-2-yl)benzyloxy)pyrimidin-4-yl)-1H-1,2,4-triazol-3-amine] | 19 nM
COc1ccc(Cc2nc(N)nn2-c2cc(OCCN3CCNC3=O)ncn2)cc1OC [1-44, 1-(2-(6-(3-amino-5-(3,4-dimethoxybenzyl)-1H-1,2,4-triazol-1-yl)pyrimidin-4-yloxy)ethyl)imidazolidin-2-one] | 18 nM
COc1ccc(Cc2nc(N)nn2-c2cc(OCc3cncc(N4CCNCC4)n3)ncn2)cc1OC [1-45, 5-(3,4-dimethoxybenzyl)-1-(6-((6-(piperazin-1-yl)pyrazin-2-yl)methoxy)pyrimidin-4-yl)-1H-1,2,4-triazol-3-amine] | 570 nM
COc1ccc(Cc2nc(N)nn2-c2cc(OCC3(c4ccccc4)CC3(F)F)ncn2)cc1OC (stereo not drawn) [1-46, 1-(6-((2,2-difluoro-1-phenylcyclopropyl)methoxy)pyrimidin-4-yl)-5-(3,4-dimethoxybenzyl)-1H-1,2,4-triazol-3-amine] | 5.6 nM

More lines, now with the values ahead:

Ki | SMILES
70 nM | COc1ccc(Cc2nc(N)nn2-c2cc(=O)n(CCc3ccccn3)cn2)cc1OC [1-47, 6-(3-amino-5-(3,4-dimethoxybenzyl)-1H-1,2,4-triazol-1-yl)-3-(2-(pyridin-2-yl)ethyl)pyrimidin-4(3H)-one]
< 3.8 nM | COc1ccc(Cc2nc(N)nn2-c2cc(=O)n(CCN3CCOCC3)cn2)cc1OC [1-48, 6-(3-amino-5-(3,4-dimethoxybenzyl)-1H-1,2,4-triazol-1-yl)-3-(2-morpholinoethyl)pyrimidin-4(3H)-one]
< 3.8 nM | COc1ccc(Cc2nc(N)nn2-c2cc(=O)n(Cc3ccccn3)cn2)cc1OC [1-49, 6-(3-amino-5-(3,4-dimethoxybenzyl)-1H-1,2,4-triazol-1-yl)-3-(pyridin-2-ylmethyl)pyrimidin-4(3H)-one]
190 nM | COc1ccc(Cc2nc(N)nn2-c2cc(=O)n(Cc3ccccc3C(F)(F)F)cn2)cc1OC [1-50, 6-(3-amino-5-(3,4-dimethoxybenzyl)-1H-1,2,4-triazol-1-yl)-3-(2-(trifluoromethyl)benzyl)pyrimidin-4(3H)-one]
23 nM | COc1ccc(Cc2nc(N)nn2-c2cc(=O)n(CCc3cccs3)cn2)cc1OC [1-51, 6-(3-amino-5-(3,4-dimethoxybenzyl)-1H-1,2,4-triazol-1-yl)-3-(2-(thiophen-2-yl)ethyl)pyrimidin-4(3H)-one]
390 nM | COc1ccc(Cc2nc(N)nn2-c2cc(=O)n(Cc3nc4ccccc4[nH]3)cn2)cc1OC [1-54, 3-((1H-benzo[d]imidazol-2-yl)methyl)-6-(3-amino-5-(3,4-dimethoxybenzyl)-1H-1,2,4-triazol-1-yl)pyrimidin-4(3H)-one]
650 nM | COc1ccc(Cc2nc(N)nn2-c2cc(=O)n(Cc3cn4ccccc4n3)cn2)cc1OC [1-55, 6-(3-amino-5-(3,4-dimethoxybenzyl)-1H-1,2,4-triazol-1-yl)-3-(imidazo[1,2-a]pyridin-2-ylmethyl)pyrimidin-4(3H)-one]
540 nM | COc1ccc(Cc2nc(N)nn2-c2cc(=O)n(Cc3ccc(-c4ccncc4)cc3)cn2)cc1OC [1-56, 6-(3-amino-5-(3,4-dimethoxybenzyl)-1H-1,2,4-triazol-1-yl)-3-(4-(pyridin-4-yl)benzyl)pyrimidin-4(3H)-one]
110 nM | COc1ccc(Cc2nc(N)nn2-c2cc(=O)n(CCN3CCNC3=O)cn2)cc1OC [1-57, 6-(3-amino-5-(3,4-dimethoxybenzyl)-1H-1,2,4-triazol-1-yl)-3-(2-(2-oxoimidazolidin-1-yl)ethyl)pyrimidin-4(3H)-one]
37 nM | COc1ccc(Cc2nc(N)nn2-c2cc(=O)n(Cc3cnc(N4CCNCC4)cn3)cn2)cc1OC [1-58, 6-(3-amino-5-(3,4-dimethoxybenzyl)-1H-1,2,4-triazol-1-yl)-3-((5-(piperazin-1-yl)pyrazin-2-yl)methyl)pyrimidin-4(3H)-one]
